The record followed here is US11738026B2, “Combination therapy comprising an ALK2 inhibitor and a JAK2 inhibitor” (INCYTE CORPORATION, priority 2019, dated 2023).

This experiment deals with C57Bl/6 mice. Briefly: Turpentine-induced anemia in mice on low iron chow; complete blood counts. It counts as in vivo. On the procedure: C57Bl/6 mice (7-8-week-old, female) were purchased from Charles River Laboratories, Wilmington, Mass., and placed on low iron chow (Test Diet #AIN-76A 5TJK) two weeks prior to beginning study. Mice were continued on this diet through the course of the study. Mice were injected subcutaneously in the intrascapular region of the back of the recipient mouse with sterile filtered turpentine (Aldrich, cat #24245), or sterile saline in a 100 ul volume every week for three weeks. Therapeutic agents were orally administered at a total volume of 10 mL/kg body weight. Mice were administered vehicle (0.5% DMAC: […]) or compound (n=10 per dose group) starting shortly after the first turpentine injection (day 0), and continuing every day until the study termination. Blood was collected via by orbital sinus once weekly, and complete blood counts (CBCs) were determined by hematology instrumentation (Abaxis, model HM5). Statistical analyses were performed using Graphpad Prism software. Mice were handled according to Incyte IACUC protocols.
Together these experiments indicate that ALK2 inhibition can reverse the decreases in RBC counts, hemoglobin, and hematocrit brought on by turpentine generated, inflammation induced anemia, and this anti-anemia efficacy from ALK2 inhibition is possible in the presence of ruxolitinib.

Where [1] appears, read: 30 mg/kg BID, day 21 post first turpentine injection, FIG. 2, change statistically significant by unpaired t-test.
[2] abbreviates: 100 mg/kg QD, 28 days post first turpentine injection, FIG. 1.
Where [3] appears, read: mice also dosed with ruxolitinib (90 mg/kg BID), FIG. 2 (Compound A 30 mg/kg BID).

SMILES strings stand for the structures.

As to `Nc1ncc(-c2ccc([C@@]34C[C@@H]3CN(C3CCOCC3)C4)cc2)cc1C(=O)NC12CCC(O)(CC1)CC2` [Compound A, 2-amino-N-(4-hydroxybicyclo-[2.2.2]octan-1-yl)-5-(4-((1R,5S)-3-(tetrahydro-2H-pyran-4-yl)-3-azabicyclo-[3.1.0]hexan-1-yl)phenyl)nicotinamide], under setting [1], the hematocrit result is recorded as “the same trend was demonstrated”, the hemoglobin result is recorded as “the same trend was demonstrated” and the “red blood cell count” value is “the same trend was demonstrated”. Also, under setting [2], the hematocrit entry is listed as “levels similar to saline (non-turpentine induced anemia) control”, the hemoglobin entry is on record as “levels similar to saline (non-turpentine induced anemia) control” and the “red blood cell count” value is listed as “levels similar to saline (non-turpentine induced anemia) control”. Besides, the “anemia brought on by turpentine” value (100 mg/kg QD, oral, daily from day 0, turpentine s.c. weekly for three weeks) was “corrected the anemia brought on by turpentine”. Moreover, under setting [3], the RBC entry is recorded as “significant increases”, the hematocrit levels result was “significant increases” and the hemoglobin result is recorded as “significant increases”.

As to `N#CC[C@H](C1CCCC1)n1cc(-c2ncnc3[nH]ccc23)cn1` [ruxolitinib, (R)-3-(4-(7H-pyrrolo[2,3-d]pyrimidin-4-yl)-1H-pyrazol-1-yl)-3-cyclopentylpropanenitrile, reference compound], the “anemias brought on by turpentine injection” value (90 mg/kg BID, oral, in each experiment) is on record as “exacerbated the anemias”.
